Test results reported in publication PMC12030706, “Novel ^177Lu-Labeled [Thz^14]Bombesin(6–14) Derivatives with Low Pancreas Accumulation for Targeting Gastrin-Releasing Peptide Receptor-Expressing Cancer” (Pharmaceuticals, 2025).
Numbered stars: 1 amine (or outer) side, 2 acyl side, 3 side chain; on linkers, the order of the positions; unused ones are H or OH. Square brackets hold non-standard residues; d marks the D form. Peptide text beside a SMILES is read from it. * marks the point of attachment. DOTA = O=C(O)CN1CCN(CC(=O)O)CCN(CC(=O)*)CCN(CC(=O)O)CC1; NMeH = CN[C@@H](Cc1c[nH]cn1)C(=O)O; X1 = O=C(CN1CCC(N[*:1])CC1)[*:2]; Tle = CC(C)(C)[C@H](N)C(=O)O; Thz = O=C(O)[C@@H]1CSCN1

Key:
[1] = Ex vivo biodistribution in PC-3 tumor-bearing mice; settings: mouse; for tissue uptake at 4 h: 4 h post-injection; for tissue uptake at 24 h: 24 h post-injection; for tissue uptake at 72 h: 72 h post-injection; for tissue uptake at 120 h: 120 h post-injection
Method: (§1) SPECT/CT imaging experiments were performed using an MILabs (Houten, The Netherlands) U-SPECT-II/CT scanner with a custom-made ultra-high-sensitivity big mouse collimator (2 mm pinhole size) following previously reported procedures. […] Male NOD.Cg-Rag1^tm1Mom Il2rg^tm1Wjl/SzJ (NRG) mice were used in these experiments because of their immunodeficient characteristics and excellent radiation tolerance. Mice were anaesthetized and subcutaneously implanted with 5 × 10^6 PC-3 prostate cancer cells (100 µL; 1:1 PBS/Matrigel) behind the left shoulder. SPECT/CT imaging and biodistribution studies were performed once the tumors reached a diameter of 5–8 mm, typically after approximately 4 weeks of growth.
(§2) For ex vivo biodistribution studies, the mice were injected with ~2–6 MBq of the radioligand. […] Blocking study was conducted at 1 h post-injection via co-injection of the radioligand with 100 μg of [D-Phe^6,Leu-NHEt^13,des-Met^14]Bombesin(6–14). Organs/tissues of interested were collected, weighed, and measured using an automatic gamma counter.

PC-3 tumor-bearing mice = test: Ex vivo biodistribution in PC-3 tumor-bearing mice
Method: as §1, §2

[2] = tested on: PC-3 tumor-bearing NRG mouse; test: Longitudinal SPECT/CT imaging in PC-3 tumor-bearing mice; type: in vivo, mice (NRG); settings: SPECT/CT images
Method: The PC-3 tumor-bearing mice were sedated (2.5% isoflurane in O2) and injected with ^177Lu-labeled ligands (15–32 MBq) through a lateral caudal tail vein. […] At each time point, a 5 min CT scan was obtained using 615 μA and 60 kV parameters for localization and attenuation, followed by 2 × 30 min static SPECT scans acquired in list mode with an energy window centered around 208 keV. The MILabs U-SPECT II reconstruction software (version 8.00) was used to reconstruct data, and the images were decay corrected to the time of injection with PMOD v 3.402 (PMOD Technologies GmbH, Fallanden, Switzerland).

[3] = large intestine, Uptake in large intestine
[4] = small intestine, Uptake in small intestine
[5] = 1 h blocked (co-injected with 100 µg [D-Phe6,Leu-NHEt13,des-Met14]Bombesin(6-14))
[6] = 1 h post-injection, 100 µg [D-Phe6,Leu-NHEt13,des-Met14]Bombesin(6–14)

## CC(C)C[C@H](NC(=O)[C@H](Cc1cnc[nH]1)N(C)C(=O)CNC(=O)[C@@H](NC(=O)[C@H](C)NC(=O)[C@H](Cc1c[nH]c2ccccc12)NC(=O)[C@H](Cc1c[nH]cn1)NC(=O)[C@@H](Cc1ccccc1)NC(=O)CN1CCC(NC(=O)CN2CCN(CC(=O)O)CCN(CC(=O)O)CCN(CC(=O)O)CC2)CC1)C(C)(C)C)C(=O)N1CSC[C@H]1C(N)=O [[^177Lu]Lu-LW01142, metal not drawn] ({DOTA}-[X1][dF]HWA[Tle]G[NMeH]L[Thz]-NH2)
[1]; large intestine, 100 ug, Uptake in large intestine, 1 h blocked (co-injected with 100 µg [D-Phe6,Leu-NHEt13,des-Met14]Bombesin(6-14))
  tissue uptake at 1 h: 0.31 ± 0.08 %ID/g
[1]; [3]
  tissue uptake at 4 h: 0.81 ± 0.21 %ID/g
  tissue uptake at 24 h: 0.3 ± 0.12 %ID/g
  tissue uptake at 72 h: 0.13 ± 0.05 %ID/g
  tissue uptake at 120 h: 0.07 ± 0.04 %ID/g
[1]; liver, 100 ug, Uptake in liver, 1 h blocked (co-injected with 100 µg [D-Phe6,Leu-NHEt13,des-Met14]Bombesin(6-14))
  tissue uptake at 1 h: 0.57 ± 0.15 %ID/g
[1]; liver, Uptake in liver
  tissue uptake at 4 h: 0.33 ± 0.05 %ID/g
  tissue uptake at 24 h: 0.28 ± 0.07 %ID/g
  tissue uptake at 120 h: 0.08 ± 0.02 %ID/g
[1]; lungs, Uptake in lungs, 1 h post-injection
  tissue uptake at 1 h: 1.53 ± 0.19 %ID/g
[1]; lungs, Uptake in lungs
  tissue uptake at 4 h: 0.57 ± 0.21 %ID/g
  tissue uptake at 24 h: 0.16 ± 0.08 %ID/g
  tissue uptake at 72 h: 0.03 ± 0.01 %ID/g
  tissue uptake at 120 h: 0.03 ± 0.01 %ID/g
[1]; muscle, 100 ug, Uptake in muscle, 1 h blocked (co-injected with 100 µg [D-Phe6,Leu-NHEt13,des-Met14]Bombesin(6-14))
  tissue uptake at 1 h: 0.23 ± 0.11 %ID/g
[1]; muscle, Uptake in muscle, 1 h post-injection
  tissue uptake at 1 h: 0.22 ± 0.04 %ID/g
[1]; muscle, Uptake in muscle
  tissue uptake at 4 h: 0.03 ± 0.01 %ID/g
  tissue uptake at 24 h: 0.01 %ID/g
  tissue uptake at 72 h: 0.01 %ID/g
[1]; pancreas, 100 ug, Uptake in pancreas, 1 h blocked (co-injected with 100 µg [D-Phe6,Leu-NHEt13,des-Met14]Bombesin(6-14))
  tissue uptake at 1 h: 1.88 ± 0.42 %ID/g
[1]; pancreas, Uptake in pancreas
  tissue uptake at 4 h: 1.57 ± 0.28 %ID/g
  tissue uptake at 24 h: ~1 %ID/g
  tissue uptake at 72 h: 0.68 ± 0.1 %ID/g
  tissue uptake at 120 h: 0.48 ± 0.08 %ID/g
[1]; small intestine, 100 ug, Uptake in small intestine, 1 h blocked (co-injected with 100 µg [D-Phe6,Leu-NHEt13,des-Met14]Bombesin(6-14))
  tissue uptake at 1 h: 0.54 ± 0.1 %ID/g
[1]; small intestine, Uptake in small intestine, 1 h post-injection
  tissue uptake at 1 h: 1.32 ± 0.42 %ID/g
[1]; [4]
  tissue uptake at 4 h: 0.29 ± 0.08 %ID/g
  tissue uptake at 24 h: 0.14 ± 0.03 %ID/g
  tissue uptake at 72 h: 0.05 ± 0.01 %ID/g
  tissue uptake at 120 h: 0.02 ± 0.02 %ID/g
[1]; spleen, 100 ug, Uptake in spleen, 1 h blocked (co-injected with 100 µg [D-Phe6,Leu-NHEt13,des-Met14]Bombesin(6-14))
  tissue uptake at 1 h: 0.4 ± 0.04 %ID/g
[1]; spleen, Uptake in spleen
  tissue uptake at 24 h: 0.14 ± 0.05 %ID/g
  tissue uptake at 72 h: 0.09 ± 0.02 %ID/g
  tissue uptake at 120 h: 0.09 ± 0.02 %ID/g
[1]; stomach, Uptake in stomach, 1 h post-injection
  tissue uptake at 1 h: 0.6 ± 0.24 %ID/g
[1]; stomach, Uptake in stomach
  tissue uptake at 4 h: 0.11 ± 0.04 %ID/g
  tissue uptake at 24 h: 0.16 ± 0.07 %ID/g
  tissue uptake at 120 h: 0.02 ± 0.01 %ID/g
[1]; testes, 100 ug, Uptake in testes, 1 h blocked (co-injected with 100 µg [D-Phe6,Leu-NHEt13,des-Met14]Bombesin(6-14))
  tissue uptake at 1 h: 0.48 ± 0.16 %ID/g
[1]; testes, Uptake in testes
  tissue uptake at 4 h: 0.05 ± 0.01 %ID/g
  tissue uptake at 24 h: 0.03 ± 0.01 %ID/g
  tissue uptake at 72 h: 0.02 %ID/g
  tissue uptake at 120 h: 0.01 %ID/g
PC-3 tumor-bearing mice; [5]
  Uptake in lungs: 1.06 ± 0.27 %ID/g
  Uptake in stomach: 0.17 ± 0.06 %ID/g
PC-3 tumor-bearing mice; 1 h post-injection
  Uptake in bone: 0.15 ± 0.03 %ID/g
  Uptake in kidneys: 6.86 ± 0.81 %ID/g
  Uptake in large intestine: 0.76 ± 0.16 %ID/g
  Uptake in liver: 0.71 ± 0.08 %ID/g
  Uptake in pancreas: 4.45 ± 0.83 %ID/g
  Uptake in spleen: 0.47 ± 0.07 %ID/g
  Uptake in testes: 0.32 ± 0.18 %ID/g
PC-3 tumor-bearing mice; [6]
  reduction of average pancreas uptake by co-injection of blocker: 58%
  reduction of average tumor uptake by co-injection of blocker: 62%
PC-3 tumor-bearing mice; 4 h post-injection
  Uptake in heart: 0.06 ± 0.01 %ID/g
  Uptake in kidneys: 5.51 ± 0.54 %ID/g
  Uptake in spleen: 0.17 ± 0.04 %ID/g
PC-3 tumor-bearing mice; 24 h post-injection
  Uptake in pancreas: 1.06 ± 0.26 %ID/g
PC-3 tumor-bearing mice; 72 h post-injection
  Uptake in liver: 0.12 ± 0.03 %ID/g
  Uptake in stomach: 0.10 ± 0.05 %ID/g
PC-3 tumor-bearing mice; 120 h post-injection
  Uptake in adrenal glands: 0.17 ± 0.09 %ID/g
PC-3 tumor-bearing mice; relative to 1 h uptake
  uptake in PC-3 tumor xenografts cleared within 24 h: 47%
[2]
  excretion pathway: excreted mainly via the renal pathway
